According to PMC4085797, “Synthetic Inositol Phosphate Analogs Reveal that PPIP5K2 Has a Surface-Mounted Substrate Capture Site that Is a Target for Drug Discovery” (Chemistry & Biology, 2014):
Substitutions are numbered along the chain they refer to. “Also recorded” adds a separate entry of the source.

Key:
[1] = biological target: T1, PPIP5K2^KD (kinase domain of human PPIP5K2) (Homo sapiens, UniProt O43314); experiment: Reverse-kinase assay: ADP-driven dephosphorylation of 1,5-[PP]2-InsP4, luminescence-based assay of ATP accumulation; format: biochemical; conditions: for inhibition of [PP]2-InsP4 metabolism (in words): 100 nM 1,5-[PP]2-InsP4, Figure 4B; for IC50: 100 nM [PP]2-InsP4, key of Figure 4B, n = 3, read-out: IC50, inhibition of ADP-driven dephosphorylation of [PP]2-InsP4
T1 construct: The kinase domain of human PPIP5K2 (PPIP5K2^KD; residues 1–366); made in house
T1 sequence (O43314 1-366): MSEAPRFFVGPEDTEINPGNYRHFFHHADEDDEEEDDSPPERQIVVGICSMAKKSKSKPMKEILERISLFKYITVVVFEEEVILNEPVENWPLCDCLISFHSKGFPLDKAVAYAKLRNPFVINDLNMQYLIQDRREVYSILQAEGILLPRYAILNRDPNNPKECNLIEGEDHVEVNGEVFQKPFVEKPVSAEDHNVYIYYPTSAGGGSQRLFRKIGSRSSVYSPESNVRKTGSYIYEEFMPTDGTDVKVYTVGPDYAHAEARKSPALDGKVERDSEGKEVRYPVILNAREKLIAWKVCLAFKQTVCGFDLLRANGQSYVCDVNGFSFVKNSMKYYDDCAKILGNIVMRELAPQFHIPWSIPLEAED
Experimental: The six compounds that were selected for the dose-response curves in the assays of ATP hydrolysis (Figure 4A) were now investigated for their effects upon diphosphoinositol polyphosphate metabolism by PPIP5K2^KD (Figure 4B). We used a high-throughput reverse-kinase assay that records ATP generated from ADP during the dephosphorylation of 100 nM 1,5-[PP]2-InsP4 ([Riley et al., 2012; Weaver et al., 2013]). Each of the tested analogs inhibited [PP]2-InsP4 metabolism by PPIP5K2^KD (Figure 4B). […] However, the inhibition by 2,5-di-O-Bn-InsP4 (10) was more unexpected because due to its bulk, and its less negative charge compared to physiological substrates, we predict it to be a poor ligand for the active site of the highly specific PPIP5K2^KD ([Wang et al., 2012]). Nevertheless, its ability to inhibit reverse-kinase activity was directly confirmed by high-performance liquid chromatography (HPLC) analysis of [PP]2-[^3H]InsP4 dephosphorylation (Figures S1A–S1C available online).
(§1) The initial InsP6 concentration was either 500 nM, 70 nM, or 40 nM. Various concentrations of 2,5-di-O-Bn-InsP4 were present as indicated. Radioactivity was assessed using an in-line Flo1 detector. The ADP-driven dephosphorylation of 100 nM 1,5-[PP]2-InsP4 by PPIP5K2^KD was usually determined by a luminescence-based assay of ATP accumulation ([Riley et al., 2012; Weaver et al., 2013]). The IC50 values were determined using GraphPad Prism v6.02 (n ≥ 3). In some experiments, 1,5-[PP]2-[^3H]InsP4 dephosphorylation by PPIP5K2^KD was assayed in 50 μl buffer containing 50 mM KCl, 20 mM HEPES pH 7.0, 7 mM MgSO4, 5 mM ADP, 1 mM EDTA. Reactions were then quenched, neutralized, and analyzed with HPLC using a Partisphere SAX column ([Weaver et al., 2013]); 1 ml fractions were collected for liquid scintillation spectrometry. The ATPase activity of PPIP5K2^KD (10–270 μg/ml) was assayed from Pi release following incubation at 37°C for 120–180 min in 20 μl reaction mixtures containing 20 mM Tris/HCl, pH 7.5, 10 mM ATP, 100 mM KCl, 0.1 mM EDTA, and 13 mM MgCl2.

[2] = biological target: T1, PPIP5K2^KD (kinase domain of human PPIP5K2); experiment: ATPase activity of PPIP5K2KD (Pi release); format: biochemical; conditions: for EC50: dose-response, key of Figure 4A, n = 3, read-out: EC50, stimulation of ATPase activities; for stimulation of ATPase activity (in words): wild-type enzyme
Experimental: as §1

[3] = biological target: T1, PPIP5K2^KD (kinase domain of human PPIP5K2); parameters: method as in Weaver et al., 2013; conditions: 25 μM; ref Weaver et al., 2013; cited from earlier work
human IP6K2 = biological target: T2, human IP6K2 (Homo sapiens, UniProt Q9UHH9); parameters: method as in Saiardi et al., 2000; conditions: ref Saiardi et al., 2000; cited from earlier work
T2 construct: Full-length human IP6K2, the kinase domain of human PPIP5K2; made in house
T2 sequence (Q9UHH9 1-426): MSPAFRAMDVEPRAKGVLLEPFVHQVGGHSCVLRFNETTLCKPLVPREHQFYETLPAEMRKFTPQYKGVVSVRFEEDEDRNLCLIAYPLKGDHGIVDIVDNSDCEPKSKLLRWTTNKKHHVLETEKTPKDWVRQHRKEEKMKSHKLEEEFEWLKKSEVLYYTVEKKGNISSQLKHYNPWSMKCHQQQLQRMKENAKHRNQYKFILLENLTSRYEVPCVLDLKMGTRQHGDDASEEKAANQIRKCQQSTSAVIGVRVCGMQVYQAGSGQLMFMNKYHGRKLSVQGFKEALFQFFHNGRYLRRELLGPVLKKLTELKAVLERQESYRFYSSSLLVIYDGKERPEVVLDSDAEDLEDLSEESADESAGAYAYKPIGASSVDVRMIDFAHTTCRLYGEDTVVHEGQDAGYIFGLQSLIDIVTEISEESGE

PPIP5K2^KD R213A mutant = biological target: T3, PPIP5K2^KD R213A mutant (Homo sapiens, UniProt O43314, R213A); parameters: method as in Weaver et al., 2013; conditions: R213A mutation; ref Weaver et al., 2013; cited from earlier work
T3 construct: The kinase domain of human PPIP5K2 (PPIP5K2^KD; residues 1–366); made in house
T3 sequence (O43314 1-366 R213A): T1 sequence (O43314 1-366) with R213A

human PPIP5K2^KD = biological target: T4, human PPIP5K2^KD (Homo sapiens, UniProt O43314); parameters: method as in Weaver et al., 2013; conditions: ref Weaver et al., 2013; cited from earlier work
T4 construct: The kinase domain of human PPIP5K2 (PPIP5K2^KD; residues 1–366); made in house
T4 sequence (O43314 1-366): T1 sequence (O43314 1-366)

PPIP5K2^KD E192G mutant = biological target: T5, PPIP5K2^KD E192G mutant (Homo sapiens, UniProt O43314, E192G); experiment: ATPase activity of E192G mutant; format: biochemical
T5 construct: The kinase domain of human PPIP5K2 (PPIP5K2^KD; residues 1–366); made in house
T5 sequence (O43314 1-366 E192G): T1 sequence (O43314 1-366) with E192G
Experimental: as §1
Protein Expression, Purification, Crystallization and Structure Determination […]
(§2) The structure was further manually rebuilt with COOT and refined with PHENIX and
(§3) REFMAC from the CCP4 package. Ligand topology and parameter files were prepared using
(§4) the PRODRG server. The molecular graphics representations were prepared with the program
(§5) PyMol (Schrödinger, LLC). The 2D ligand-protein interaction diagrams were generated by
(§6) LigPlot+. Atomic coordinates and structure factors have been deposited with the Protein Data
(§7) Bank with accession codes: 4NZM, 4NZN, 4NZO.
(§8) Mutants were generated using a site-directed mutagenesis kit (Stratagene). Pairs of complementary
primers were designed as shown below, with mutagenic primers underlined (only 5’ primers are
All mutated constructs were sequenced. Mutant proteins were expressed and purified as for wild-

PPIP5K2^KD E192Q mutant = biological target: T6, PPIP5K2^KD E192Q mutant (Homo sapiens, UniProt O43314, E192Q); experiment: ATPase activity of E192Q mutant; format: biochemical; conditions: 25 μM, Figure 7E
T6 construct: The kinase domain of human PPIP5K2 (PPIP5K2^KD; residues 1–366); made in house
T6 sequence (O43314 1-366 E192Q): T1 sequence (O43314 1-366) with E192Q
Experimental: as §1
Protein Expression, Purification, Crystallization and Structure Determination
Full-length human IP6K2, the kinase domain of human PPIP5K2 (PPIP5K2KD; residues 1-
366), and the N-terminally truncated domain used for the crystallography studies (residues
41-366) were all sub-cloned, expressed and purified as before (Wang et al., 2012; Weaver et
al., 2013). […]
as §2, §3, §4, §5, §6, §7, §8
primers were designed as shown below, with mutagenic primers underlined (only 5’ primers are […]

Row | IC50 [1] [µM] | EC50 [2] [µM] | Structure (SMILES) | stimulation of ATPase activity (in words) ([2]; 25 μM, Figure 2) | further results
1 | 0.14 | 1.2 | O=C(CP(=O)(O)O)O[C@@H]1[C@@H](OP(=O)(O)O)[C@H](OP(=O)(O)O)[C@H](OP(=O)(O)O)[C@H](OP(=O)(O)O)[C@H]1OP(=O)(O)O [compound 1, 5-O-α-phosphonoacetyl-myo-inositol 1,2,3,4,6-pentakisphosphate] |  | inhibition of [PP]2-InsP4 metabolism (in words) [1]: most potent inhibitor; stimulation of ATP hydrolysis ([2]; 25 μM analog): 5 fold
2 |  |  | NCCO[C@H]1[C@@H](OP(=O)(O)O)[C@H](OP(=O)(O)O)[C@@H](OP(=O)(O)O)[C@H](OP(=O)(O)O)[C@H]1OP(=O)(O)O [compound 6, 2-O-(2-aminoethyl)-InsP5] | did not stimulate ATPase activity | 
3 |  |  | O=P(O)(O)O[C@@H]1[C@@H](OP(=O)(O)O)[C@H](OP(=O)(O)O)[C@H](O)[C@H](OP(=O)(O)O)[C@H]1OP(=O)(O)O [Ins(1,3,4,5,6)P5] |  | activation of substrate-stimulated ATPase activity [3]: 2- to 3 fold
4 |  |  | O=P(O)(O)O[C@H]1[C@H](OP(=O)(O)O)[C@@H](OP(=O)(O)O)[C@H](OP(=O)(O)O)[C@@H](OP(=O)(O)O)[C@H]1OP(=O)(O)O [InsP6] |  | affinity of IP6K2 for InsP6 (human IP6K2): 430 nM; activation of substrate-stimulated ATPase activity [3]: 2- to 3 fold; InsP6-stimulated ATPase activity (in words) (PPIP5K2^KD R213A mutant): abolished; affinity for InsP6 phosphorylation by PPIP5K2^KD (human PPIP5K2^KD): 0.39 µM
5 | 2.4 | 8.8 | O=P(O)(O)O[C@@H]1[C@@H](OP(=O)(O)OP(=O)(O)O)[C@H](OP(=O)(O)O)[C@@H](OP(=O)(O)O)[C@@H](O)[C@H]1OP(=O)(O)O [compound 9, 5-PP-InsP4] | about half the rate shown by 2-O-Bn-5-PP-InsP4 (8) | 
6 | 0.5 | 2.6 | O=P(O)(O)O[C@@H]1[C@H](OCc2ccccc2)[C@H](OP(=O)(O)O)[C@@H](OP(=O)(O)O)[C@H](OP(=O)(O)OP(=O)(O)O)[C@H]1OP(=O)(O)O [compound 8, 2-O-Bn-5-PP-InsP4] |  | rate of ligand-stimulated ATPase activity vs wild-type (in words) (PPIP5K2^KD E192G mutant): neither of these particular mutations altered the rate; rate of ligand-stimulated ATPase activity vs wild-type (in words) (PPIP5K2^KD E192Q mutant): neither of these particular mutations altered the rate; more effective at stimulating ATPase activity than 2-O-Bn-5-PA-IP4 (2) ([2]; 25 μM, Figure 2): 20%
7 | 0.44 | 2.2 | O=P(O)(O)O[C@@H]1[C@@H](OP(=O)(O)O)[C@H](OP(=O)(O)O)[C@H](OCc2ccccc2)[C@H](OP(=O)(O)O)[C@H]1OP(=O)(O)O [compound 7, 2-O-Bn-InsP5] | less effective than was 2-O-Bn-5-PA-InsP4; also recorded: roughly doubling the rate of ATP hydrolysis that is induced by InsP6 | inhibition of [PP]2-InsP4 metabolism (in words) [1]: equally efficient; less potent than 2-O-Bn-5-PA-InsP4 (2) at stimulating ATPase activity ([2]; from EC50 values, Figure 4A): 4 fold
8 |  |  | O=C(O[C@H]1[C@@H](OP(=O)(O)O)[C@H](OP(=O)(O)O)[C@@H](OP(=O)(O)O)[C@H](OP(=O)(O)O)[C@H]1OP(=O)(O)O)c1ccccc1 [compound 4, 2-O-benzoyl-InsP5] | only a minimal reduction in ATPase-stimulating activity | 
9 |  |  | O=C(CP(=O)(O)O)O[C@@H]1[C@@H](OP(=O)(O)O)[C@H](OP(=O)(O)O)[C@H](O)[C@H](OP(=O)(O)O)[C@H]1OP(=O)(O)O [compound 3, 5-PA-InsP4] | dramatically reduced | 
10 |  |  | CCCC(=O)O[C@H]1[C@@H](OP(=O)(O)O)[C@H](OP(=O)(O)O)[C@@H](OP(=O)(O)O)[C@H](OP(=O)(O)O)[C@H]1OP(=O)(O)O [compound 5, 2-O-butanoyl-InsP5] | sharp reduction in activity | 
